The first test concerns the target human TRPM8 (Homo sapiens (Human), UniProt Q7Z2W7). Nature of the test: TRPM8 inhibition assay (menthol-induced calcium influx, FDSS). It counts as cell-based. The following applies: HEK293 cells stably expressing human TRPM8; 100 μM menthol; Fura-2AM Ca2+ signal; read-out: TRPM8 Blocking Test (IC50). The procedure: The functional activity of compounds was determined by measuring changes in intracellular calcium concentration using a Ca^2+ sensitive fluorescent dye. The changes in fluorescent signal were monitored by the cell imaging technology by Hamamatsu Photonics's Functional Drug Screening System (FDSS). […] HEK293 cells stably expressing human TRPM8 were grown in flasks. On assay day, the culture medium was removed, and cells were washed with phosphate-buffered saline (PBS) and harvested with PBS containing 2 mM ethylenediaminetetraacetic acid, disodium salt (EDTA, 2Na). […] Subsequently, suspended 20,000 to 50,000 cells per well were incubated with test compound (at varying concentrations) in each well for 20 min at 37° C. Changes in intracellular Ca^2+ evoked by 100 μM menthol were measured for 2 min using FDSS. IC50 vales were determined from four-point concentration-response studies. Curves were generated using the average of quadruplicate wells for each data point.
Sequence of human TRPM8 (Q7Z2W7 whole entry): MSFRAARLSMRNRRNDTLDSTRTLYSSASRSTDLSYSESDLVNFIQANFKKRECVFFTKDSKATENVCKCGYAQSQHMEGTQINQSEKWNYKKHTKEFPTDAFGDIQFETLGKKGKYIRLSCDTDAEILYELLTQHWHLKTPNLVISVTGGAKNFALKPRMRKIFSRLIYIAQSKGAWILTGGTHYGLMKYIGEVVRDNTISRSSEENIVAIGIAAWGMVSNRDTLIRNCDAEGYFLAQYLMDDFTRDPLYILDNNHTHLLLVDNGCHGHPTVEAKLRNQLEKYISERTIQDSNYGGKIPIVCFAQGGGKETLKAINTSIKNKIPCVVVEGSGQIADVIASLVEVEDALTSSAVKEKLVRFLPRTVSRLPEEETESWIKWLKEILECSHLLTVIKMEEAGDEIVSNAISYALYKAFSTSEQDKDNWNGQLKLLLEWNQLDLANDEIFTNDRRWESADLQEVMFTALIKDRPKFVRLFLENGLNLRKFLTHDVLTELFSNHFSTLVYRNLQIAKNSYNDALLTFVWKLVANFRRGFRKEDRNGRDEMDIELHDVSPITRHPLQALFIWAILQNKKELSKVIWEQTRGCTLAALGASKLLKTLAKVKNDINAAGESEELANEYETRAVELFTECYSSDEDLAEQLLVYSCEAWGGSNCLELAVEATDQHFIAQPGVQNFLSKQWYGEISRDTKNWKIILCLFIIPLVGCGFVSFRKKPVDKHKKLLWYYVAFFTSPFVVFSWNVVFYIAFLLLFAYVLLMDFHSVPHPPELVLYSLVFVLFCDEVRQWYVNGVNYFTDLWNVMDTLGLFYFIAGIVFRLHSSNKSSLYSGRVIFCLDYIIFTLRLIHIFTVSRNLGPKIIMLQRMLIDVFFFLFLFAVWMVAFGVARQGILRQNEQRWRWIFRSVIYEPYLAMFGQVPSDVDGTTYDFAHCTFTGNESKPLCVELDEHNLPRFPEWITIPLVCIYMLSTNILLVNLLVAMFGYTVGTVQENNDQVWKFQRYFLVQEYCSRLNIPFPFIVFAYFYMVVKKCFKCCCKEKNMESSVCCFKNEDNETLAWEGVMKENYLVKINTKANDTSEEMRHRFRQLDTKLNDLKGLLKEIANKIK
Sequence of TRPM8 (Q8R455 whole entry): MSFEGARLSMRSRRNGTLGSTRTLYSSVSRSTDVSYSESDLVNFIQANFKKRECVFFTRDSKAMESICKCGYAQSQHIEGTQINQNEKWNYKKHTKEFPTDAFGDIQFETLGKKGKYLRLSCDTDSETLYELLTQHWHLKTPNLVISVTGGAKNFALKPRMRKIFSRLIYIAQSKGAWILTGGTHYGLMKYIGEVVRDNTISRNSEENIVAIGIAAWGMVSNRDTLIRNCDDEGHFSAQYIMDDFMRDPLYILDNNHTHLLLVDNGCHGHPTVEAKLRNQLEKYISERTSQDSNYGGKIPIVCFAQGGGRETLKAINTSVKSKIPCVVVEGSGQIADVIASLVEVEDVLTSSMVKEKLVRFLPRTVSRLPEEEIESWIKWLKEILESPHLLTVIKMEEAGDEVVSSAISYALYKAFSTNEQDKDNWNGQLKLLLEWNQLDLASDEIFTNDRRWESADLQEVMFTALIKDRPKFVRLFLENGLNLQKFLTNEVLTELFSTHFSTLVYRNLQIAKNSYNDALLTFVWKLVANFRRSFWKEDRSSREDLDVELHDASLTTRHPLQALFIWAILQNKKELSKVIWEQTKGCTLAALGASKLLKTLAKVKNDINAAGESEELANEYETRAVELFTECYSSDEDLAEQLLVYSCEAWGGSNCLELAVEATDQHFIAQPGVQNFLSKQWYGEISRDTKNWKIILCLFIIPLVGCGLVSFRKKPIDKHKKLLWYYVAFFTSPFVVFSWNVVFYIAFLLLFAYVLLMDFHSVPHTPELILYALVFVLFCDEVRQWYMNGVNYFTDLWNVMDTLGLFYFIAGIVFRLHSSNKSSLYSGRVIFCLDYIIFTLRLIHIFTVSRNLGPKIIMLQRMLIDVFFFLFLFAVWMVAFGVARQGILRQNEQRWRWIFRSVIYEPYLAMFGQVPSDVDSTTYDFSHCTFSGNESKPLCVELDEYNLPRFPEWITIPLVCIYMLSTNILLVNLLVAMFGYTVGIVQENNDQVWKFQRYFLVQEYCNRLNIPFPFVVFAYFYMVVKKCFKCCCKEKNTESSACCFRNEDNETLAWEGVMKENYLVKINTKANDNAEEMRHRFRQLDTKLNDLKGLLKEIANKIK
As usually defined, the IC50 is the midpoint of a concentration-inhibition curve. As for `CC(C)c1c(N(Cc2ccc(OC(F)(F)F)cc2)S(=O)(=O)c2ccc(C(=O)O)cc2)ncc2ccccc12` [Example 227], the IC50 was 5.6 nM.

In the case of `O=C(O)c1ccc(S(=O)(=O)N(Cc2ccc(OC(F)(F)F)cc2)c2ncc3ccccc3c2C(F)(F)F)cc1` [Example 106, 4-({[4-(trifluoromethoxy)benzyl][4-(trifluoromethyl)isoquinolin-3-yl]amino}sulfonyl)benzoic acid], the half-inhibitory concentration (IC50) came out at 2 nM.

On to `O=C(O)c1ccc(S(=O)(=O)N(c2ncc3ccccc3c2C2CC2)C2CCc3cc(OC(F)(F)F)ccc32)cc1` (centres unmarked) [Example 186], for which the IC50 worked out at 4.3 nM.

Regarding `Cc1c(N(Cc2ccc3c(c2)COC3(C)C)S(=O)(=O)c2ccc(C(=O)O)cc2)ncc2ccccc12` [Example 83], the IC50 was determined as 10 nM.

For `Cc1c(N(Cc2ccc(C(C)(O)C(F)(F)F)c(Cl)c2)S(=O)(=O)c2ccc(C(=O)O)cc2)ncc2ccccc12` (centres unmarked) [Example 172], the IC50 was determined as 15 nM.

With `COC(C)(c1ccc(CN(c2ncc3ccccc3c2C)S(=O)(=O)c2ccc(C(=O)O)cc2)cc1)C(F)(F)F` (centres unmarked) [Example 96], the IC50 worked out at 4.7 nM.

As to `Cc1c(N(Cc2ccc3cn[nH]c3c2)S(=O)(=O)c2ccc(C(=O)O)cc2)ncc2ccccc12` [Example 178], the IC50 worked out at 601 nM.

On to `O=C(O)c1ccc(S(=O)(=O)N(Cc2ccc(OC(F)(F)F)cc2)c2ncc3ccccc3c2C2CC2)cc1` [Example 104, 4-({(4-cyclopropylisoquinolin-3-yl)[4-(trifluoromethoxy)benzyl]amino}sulfonyl)benzoic acid], for which the IC50 worked out at 0.9 nM.

In the case of `Cc1cc2ccccc2nc1N(Cc1ccc2c(c1)CCCC2)S(=O)(=O)c1ccc(C(=O)O)cc1` [Example 180], the IC50 is 6.9 nM.

With `Cc1c(N(Cc2ccc(C(F)(F)C3CC3)c(Cl)c2)S(=O)(=O)c2ccc(C(=O)O)cc2)ncc2ccccc12` [Example 201], the IC50 was found to be 0.6 nM.

Turning to `Cc1c(N(Cc2sc3ccccc3c2Cl)S(=O)(=O)c2ccc(C(=O)O)cc2)ncc2ccccc12` [Example 197], the IC50 amounted to 4.6 nM.

In the case of `Cc1c(N(Cc2ccc(COC(F)(F)F)cc2)S(=O)(=O)c2ccc(C(=O)O)cc2)ncc2ccccc12` [Example 192], the IC50 turned out to be 8.8 nM.

As for `O=C(O)c1ccc(S(=O)(=O)N(Cc2ccc(OC(F)(F)F)cc2)c2cc3c(Cl)cccc3cn2)cc1` [Example 102, 4-({(5-chloroisoquinolin-3-yl)[4-(trifluoromethoxy)benzyl]amino}sulfonyl)benzoic acid], the IC50 turned out to be 115 nM.

`Cc1c(N(Cc2ccc3c(c2)OC(C)(C)C3)S(=O)(=O)c2ccc(C(=O)O)cc2)ncc2ccccc12` [Example 81]: the IC50 was 58 nM.

In the case of `O=C(O)c1ccc(S(=O)(=O)N(Cc2ccc(OC(F)(F)F)cc2)c2cc3c(C4CC4)cccc3cn2)cc1` [Example 217], the IC50 amounted to 239 nM.

Regarding `Cc1cc2cc(F)ccc2nc1N(Cc1ccc(OC(F)(F)F)cc1)S(=O)(=O)c1ccc(C(=O)O)cc1` [Example 145], the IC50 amounted to 91 nM.

Consider `Cc1cc2ccccc2nc1N(Cc1ccc(C(F)(F)C2CC2)c(Cl)c1)S(=O)(=O)c1ccc(C(=O)O)cc1` [Example 202], for which the IC50 stood at 1.4 nM.

As to `NC(=O)c1ccc(S(=O)(=O)N(Cc2ccc(OC(F)(F)F)cc2)c2ncc3ccccc3c2C2CC2)cc1` [Example 241], the IC50 turned out to be 8.5 nM.

For `Cc1c(N(Cc2ccc(OC3CCCC3)cc2)S(=O)(=O)c2ccc(C(=O)O)cc2)ncc2ccccc12` [Example 46], the IC50 stood at 17 nM.

As to `Cc1c(N(Cc2ccc(C(F)(F)C3CC3)c(F)c2)S(=O)(=O)c2ccc(C(=O)O)cc2)ncc2ccccc12` [Example 203], the IC50 was found to be 1.5 nM.

On to `Cc1c(N(Cc2ccc(C3CC3)cc2)S(=O)(=O)c2ccc(C(=O)O)cc2)ncc2ccccc12` [Example 41], for which the IC50 was 12 nM.

Consider `Cc1cccc2c(C)c(N(Cc3ccc(OC(F)(F)F)cc3)S(=O)(=O)c3ccc(C(=O)O)cc3)ncc12` [Example 136], for which the IC50 is 31 nM.

Take `CCc1cc2ccccc2nc1N(Cc1ccc(OC(F)(F)F)cc1)S(=O)(=O)c1ccc(C(=O)O)cc1` [Example 144]: the IC50 is 54 nM.

Take `NC(=O)c1ccc(S(=O)(=O)N(Cc2ccc(OC(F)(F)F)cc2)c2ncc3ccccc3c2C(F)(F)F)cc1` [Example 242]: the IC50 came out at 10 nM.

Take `O=C(O)c1ccc(S(=O)(=O)N(Cc2ccc(OC(F)(F)F)cc2)c2ncc(Cl)c3sccc23)cc1` [Example 212]: the half-maximal inhibitory concentration (IC50) came to 75 nM.

With `Cc1c(N(Cc2ccc(OC(F)(F)F)cc2)S(=O)(=O)c2ccc(C(=O)NC#N)cc2)ncc2ccccc12` [Example 239], the IC50 was 14 nM.

For the compound `Cc1nc2ccc(CN(c3ncc4ccccc4c3C)S(=O)(=O)c3ccc(C(=O)O)cc3)cc2s1` [Example 190], the IC50 stood at 148 nM.

Regarding `Cc1c(N(Cc2ccc(OC(F)(F)F)cc2)S(=O)(=O)c2ccc(C(=O)O)cc2)nc(Br)c2ccccc12` [Example 129], the IC50 was 15 nM.

Turning to `COc1c(N(Cc2ccc(OC(F)(F)F)cc2)S(=O)(=O)c2ccc(C(=O)O)cc2)ncc2ccccc12` [Example 149], the IC50 came out at 3.9 nM.

Regarding `Cc1c(N(Cc2ccc(-c3ccccc3)cn2)S(=O)(=O)c2ccc(C(=O)O)cc2)ncc2ccccc12` [Example 67], the IC50 amounted to 67 nM.

Regarding `Cc1c(N(Cc2ccc(C(O)(C(F)(F)F)C(F)(F)F)cc2)S(=O)(=O)c2ccc(C(=O)O)cc2)ncc2ccccc12` [Example 128], the IC50 came out at 40 nM.

Turning to `CC(=O)c1ccc(S(=O)(=O)N(Cc2ccc(OC(F)(F)F)cc2)c2ncc3ccccc3c2C)cc1` [Example 152, 4-acetyl-N-(4-methylisoquinolin-3-yl)-N-[4-(trifluoromethoxy)benzyl]benzenesulfonamide], the IC50 was 95 nM.

On to `Cc1cc2ccccc2nc1N(Cc1ccc(F)c(C(F)(F)C2CC2)c1)S(=O)(=O)c1ccc(C(=O)O)cc1` [Example 208], for which the IC50 was 9.6 nM.

For the compound `Cc1c(N(Cc2ccc(OC(F)(F)F)cc2)S(=O)(=O)c2ccc(C(=O)O)cc2)nc(C2CC2)c2c(C)cccc12` [Example 215], the IC50 amounted to 8.2 nM.

As for `Cc1c(N(Cc2ccc(OC(F)(F)F)cc2)S(=O)(=O)c2ccc(C(=O)O)cc2)nc(-c2cccnc2)c2ccccc12` [Example 213], the half-inhibitory concentration (IC50) amounted to 116 nM.

For `COCc1nc(N(Cc2ccc(OC(F)(F)F)cc2)S(=O)(=O)c2ccc(C(=O)O)cc2)c(C)c2ccccc12` [Example 218], the IC50 is 21 nM.

With `Cc1c(N(Cc2ccc(OC(F)(F)F)cc2)S(=O)(=O)c2ccc(C(=O)O)cc2)nc(C2CCCC2)c2ccccc12` [Example 226], the IC50 was determined as 9.2 nM.

As for `O=C(O)c1ccc(S(=O)(=O)N(Cc2ccc(OC(F)(F)F)cc2)c2nc(C3CC3)c3ccccc3c2C2CC2)cc1` [Example 232], the IC50 worked out at 10 nM.

Regarding `COc1nc(N(Cc2ccc(OC(F)(F)F)cc2)S(=O)(=O)c2ccc(C(=O)O)cc2)c(C)c2cccc(C)c12` [Example 229], the IC50 turned out to be 44 nM.

For the compound `O=C(O)c1ccc(S(=O)(=O)N(Cc2ccc(OC(F)(F)F)cc2)c2ncc3ccccc3c2Br)cc1` [Example 154], the IC50 came to 2.3 nM.

In the case of `Cc1c(N(Cc2cc3ccc(Cl)cc3s2)S(=O)(=O)c2ccc(C(=O)O)cc2)ncc2ccccc12` [Example 198], the IC50 came to 11 nM.

Turning to `CCONC(=O)c1ccc(S(=O)(=O)N(Cc2ccc(OC(F)(F)F)cc2)c2ncc3ccccc3c2C)cc1` [Example 240], the IC50 is 18 nM.

Turning to `Cc1c(N(Cc2ccc(-c3ccc(F)cc3)cc2)S(=O)(=O)c2ccc(C(=O)O)cc2)ncc2ccccc12` [Example 8, 4-{[[(4′-fluorobiphenyl-4-yl)methyl](4-methylisoquinolin-3-yl)amino]sulfonyl}benzoic acid], the IC50 is 26 nM.

Regarding `Cc1c(N(Cc2ccc(F)c(C(F)(F)F)c2)S(=O)(=O)c2ccc(C(=O)O)cc2)nc(C2CC2)c2ccccc12` [Example 132], the IC50 was found to be 3.8 nM.

Take `Cc1nc2cc(CN(c3ncc4ccccc4c3C)S(=O)(=O)c3ccc(C(=O)O)cc3)ccc2s1` [Example 188]: the IC50 came out at 155 nM.

Consider `Cc1c(N(Cc2ccc(C(C)(C)C)cc2)S(=O)(=O)c2ccc(C(=O)O)cc2)ncc2ccccc12` [Example 23], for which the IC50 amounted to 1.8 nM.

The next test has as its target TRPM8 (Rattus norvegicus (Rat), UniProt Q8R455). Nature of the test: In vivo TRPM8 antagonistic assay in rats (menthol-induced wet-dog shakes). The settings on record: SD male rats; 3 mg/kg po 1 hour prior to menthol 50 mg/kg ip; WDS counted for 5 min. The procedure: The antagonistic activity of compounds was assessed in the “wet-dog” shakes (WDS) model in rats. […] Pretreatment of the rats with a TRPM8 antagonist prior to menthol administration inhibits the observed shaking behavior.
To assess the ability of a TRPM8 antagonist to prevent menthol induced shaking behavior in Sprague Dawley (SD) male rats, test compounds (3 mg/kg, po, in 0.5% methyl cellulose; N=3-4/group) were administered 1 hour prior to menthol challenge (50 mg/kg, ip, in 10% Macrogol 15 Hydroxystearate/saline). Spontaneous WDS were counted for 5 min post menthol dosing. Inhibition of the spontaneous WDS behavior relative to vehicle pretreatment is expressed as percent inhibition, calculated as follows: % Inhibition=[1−(treatment WDS count/vehicle WDS count)]×100.
In the case of `CC(C)c1c(N(Cc2ccc(OC(F)(F)F)cc2)S(=O)(=O)c2ccc(C(=O)O)cc2)ncc2ccccc12` [Example 227], the “TRPM8 antagonistic assay (% Inhibition @ 3 mg/kg)” value amounted to 72.5%.

As for `O=C(O)c1ccc(S(=O)(=O)N(Cc2ccc(OC(F)(F)F)cc2)c2ncc3ccccc3c2C(F)(F)F)cc1` [Example 106, 4-({[4-(trifluoromethoxy)benzyl][4-(trifluoromethyl)isoquinolin-3-yl]amino}sulfonyl)benzoic acid], the “TRPM8 antagonistic assay (% Inhibition @ 3 mg/kg)” value is reported as 92.7%.

With `O=C(O)c1ccc(S(=O)(=O)N(c2ncc3ccccc3c2C2CC2)C2CCc3cc(OC(F)(F)F)ccc32)cc1` (centres unmarked) [Example 186], the “TRPM8 antagonistic assay (% Inhibition @ 3 mg/kg)” value worked out at 83.5%.

For `COc1c(N(Cc2ccc(OC(F)(F)F)cc2)S(=O)(=O)c2ccc(C(=O)O)cc2)ncc2ccccc12` [Example 149], the “TRPM8 antagonistic assay (% Inhibition @ 3 mg/kg)” value was 98.8%.

Values taken from patent publication US8987445B2, “Sulfonamide compounds having TRPM8 antagonistic activity” (Mitsubishi Tanabe Pharma Corporation, priority 2011, dated 2015).
